Results: US20230102554A1 (GB002, INC., priority 2019, published 2023)

What was measured:
[1] = biological target: T1, Human PDGFRα, cytoplasmic domain (GST-PDGFRα) (Homo sapiens, UniProt P16234); experiment: Human PDGFRα biochemical inhibition assay (off-chip Mobility Shift Assay)
T1 construct: made in house

[2] = biological target: T2, Human PDGFRβ, cytoplasmic domain (GST-PDGFRβ) (Homo sapiens, UniProt P09619); experiment: Human PDGFRβ biochemical inhibition assay (off-chip Mobility Shift Assay)
T2 construct: made in house
In short: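 GST-tagged cytoplasmic domain (aa 557-1106) from baculovirus was incubated 1 h at room temperature with compound, CSKtide, ATP at Km and Mg²⁺ in HEPES buffer, pH 7.5. Phosphorylated and unphosphorylated peptide were separated by off-chip mobility shift, and the product ratio P/(P+S) gave percent inhibition.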

T1 sequence (P16234 550-1089 T674I): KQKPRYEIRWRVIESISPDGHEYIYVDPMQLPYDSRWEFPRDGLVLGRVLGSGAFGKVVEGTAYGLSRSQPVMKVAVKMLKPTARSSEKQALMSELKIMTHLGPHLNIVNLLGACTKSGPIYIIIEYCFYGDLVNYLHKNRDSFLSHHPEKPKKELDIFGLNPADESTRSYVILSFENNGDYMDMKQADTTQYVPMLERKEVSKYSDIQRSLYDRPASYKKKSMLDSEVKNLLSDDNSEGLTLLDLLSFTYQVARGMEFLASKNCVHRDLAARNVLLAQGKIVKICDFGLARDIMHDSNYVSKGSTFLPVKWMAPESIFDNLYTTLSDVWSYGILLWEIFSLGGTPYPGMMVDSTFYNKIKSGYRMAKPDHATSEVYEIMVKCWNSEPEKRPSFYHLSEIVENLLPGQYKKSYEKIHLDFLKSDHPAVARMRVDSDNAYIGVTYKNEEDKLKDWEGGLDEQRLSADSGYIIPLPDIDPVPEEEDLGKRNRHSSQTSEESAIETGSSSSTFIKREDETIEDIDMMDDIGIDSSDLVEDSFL
T2 sequence (P09619 with tags, fused parts or gaps): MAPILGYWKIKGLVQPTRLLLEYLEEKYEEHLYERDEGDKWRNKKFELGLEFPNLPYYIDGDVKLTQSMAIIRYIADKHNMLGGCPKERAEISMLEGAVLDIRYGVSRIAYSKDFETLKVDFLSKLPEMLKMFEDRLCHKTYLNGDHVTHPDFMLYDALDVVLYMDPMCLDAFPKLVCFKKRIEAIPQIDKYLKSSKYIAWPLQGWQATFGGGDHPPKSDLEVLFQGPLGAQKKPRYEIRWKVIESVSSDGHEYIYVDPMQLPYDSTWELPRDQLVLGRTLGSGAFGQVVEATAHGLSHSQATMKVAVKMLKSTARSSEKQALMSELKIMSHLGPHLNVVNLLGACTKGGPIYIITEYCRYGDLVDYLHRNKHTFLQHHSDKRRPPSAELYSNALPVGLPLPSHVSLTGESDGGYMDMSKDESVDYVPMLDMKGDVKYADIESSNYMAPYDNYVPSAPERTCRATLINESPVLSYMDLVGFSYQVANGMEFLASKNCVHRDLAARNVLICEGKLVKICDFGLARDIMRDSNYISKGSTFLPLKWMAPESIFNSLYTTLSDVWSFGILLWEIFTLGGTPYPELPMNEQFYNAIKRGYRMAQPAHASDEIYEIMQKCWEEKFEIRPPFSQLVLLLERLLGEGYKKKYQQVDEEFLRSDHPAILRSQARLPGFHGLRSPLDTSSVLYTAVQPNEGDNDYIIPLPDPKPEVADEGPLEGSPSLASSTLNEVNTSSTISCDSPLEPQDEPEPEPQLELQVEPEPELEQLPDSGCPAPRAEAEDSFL

SMILES	IC50 [1] [nM]	IC50 [2] [nM]
CC(C)c1cc(C(=O)Nc2cccc([C@H](C)Nc3cnc4[nH]ncc4n3)c2)no1 [Compound 530, (S)-N-(3-(1-((1H-pyrazolo[3,4-b]pyrazin-5-yl)amino)ethyl)phenyl)-5-isopropylisoxazole-3-carboxamide]	< 300	< 300
COc1cncc(C(=O)Nc2cccc([C@H](C)Nc3cnc4[nH]nc(C)c4n3)c2)c1 [Compound 531, (S)-5-methoxy-N-(3-(1-((3-methyl-1H-pyrazolo[3,4-b]pyrazin-5-yl)amino)ethyl)phenyl)nicotinamide]	< 300	< 300
Cc1n[nH]c2ncc(N[C@@H](C)c3cccc(NC(=O)c4cncc(C(F)F)c4)c3)nc12 [Compound 532, (S)-5-(difluoromethyl)-N-(3-(1-((3-methyl-1H-pyrazolo[3,4-b]pyrazin-5-yl)amino)ethyl)phenyl)nicotinamide]	< 300	< 300
Cc1n[nH]c2ncc(N[C@@H](C)c3cccc(NC(=O)c4cncc(Cl)c4)c3)nc12 [Compound 533, (S)-5-chloro-N-(3-(1-((3-methyl-1H-pyrazolo[3,4-b]pyrazin-5-yl)amino)ethyl)phenyl)nicotinamide]	< 300	< 300
Cc1n[nH]c2ncc(N[C@@H](C)c3cccc(NC(=O)c4ccc(C(F)(F)F)nc4)c3)nc12 [Compound 534, (S)-N-(3-(1-((3-methyl-1H-pyrazolo[3,4-b]pyrazin-5-yl)amino)ethyl)phenyl)-6-(trifluoromethyl)nicotinamide]	< 300	< 300
Cc1n[nH]c2ncc(N[C@@H](C)c3cccc(NC(=O)c4ccc(C5CC5)nc4)c3)nc12 [Compound 535, (S)-6-cyclopropyl-N-(3-(1-((3-methyl-1H-pyrazolo[3,4-b]pyrazin-5-yl)amino)ethyl)phenyl)nicotinamide]	< 300	< 300
Cc1n[nH]c2ncc(N[C@@H](C)c3cccc(NC(=O)c4ccc(OC(F)(F)F)nc4)c3)nc12 [Compound 536, (S)-N-(3-(1-((3-methyl-1H-pyrazolo[3,4-b]pyrazin-5-yl)amino)ethyl)phenyl)-6-(trifluoromethoxy)nicotinamide]	< 300	< 300
CCOc1ccc(C(=O)Nc2cccc([C@H](C)Nc3cnc4[nH]nc(C)c4n3)c2)cn1 [Compound 537, (S)-6-ethoxy-N-(3-(1-((3-methyl-1H-pyrazolo[3,4-b]pyrazin-5-yl)amino)ethyl)phenyl)nicotinamide]	< 300	< 300
Cc1cc(C(=O)Nc2cccc([C@H](C)Nc3cnc4[nH]nc(C)c4n3)c2)cnc1C(F)(F)F [Compound 538, (S)-5-methyl-N-(3-(1-((3-methyl-1H-pyrazolo[3,4-b]pyrazin-5-yl)amino)ethyl)phenyl)-6-(trifluoromethyl) nicotinamide]	< 300	< 300
Cc1n[nH]c2ncc(N[C@@H](C)c3cccc(NC(=O)c4ccc(C(F)F)s4)c3)nc12 [Compound 539, (S)-5-(difluoromethyl)-N-(3-(1-((3-methyl-1H-pyrazolo[3,4-b]pyrazin-5-yl)amino)ethyl)phenyl)thiophene-2-carboxamide]	< 300	< 300
Cc1n[nH]c2ncc(N[C@@H](C)c3cccc(NC(=O)c4cnc(C(F)(F)F)s4)c3)nc12 [Compound 540, (S)-N-(3-(1-((3-methyl-1H-pyrazolo[3,4-b]pyrazin-5-yl)amino)ethyl)phenyl)-2-(trifluoromethyl)thiazole-5-carboxamide]	< 300	< 300
Cc1n[nH]c2ncc(N[C@@H](C)c3cccc(NC(=O)c4cnc(C5CC5)s4)c3)nc12 [Compound 541, (S)-2-cyclopropyl-N-(3-(1-((3-methyl-1H-pyrazolo[3,4-b]pyrazin-5-yl)amino)ethyl)phenyl)thiazole-5-carboxamide]	< 300	< 300
Cc1n[nH]c2ncc(N[C@@H](C)c3cccc(NC(=O)c4cc(C(C)C)on4)c3)nc12 [Compound 542, (S)-5-isopropyl-N-(3-(1-((3-methyl-1H-pyrazolo[3,4-b]pyrazin-5-yl)amino)ethyl)phenyl)isoxazole-3-carboxamide]	< 300	< 300
Cc1n[nH]c2ncc(N[C@@H](C)c3cccc(NC(=O)c4cnn(C5CC5)c4)c3)nc12 [Compound 543, (S)-1-cyclopropyl-N-(3-(1-((3-methyl-1H-pyrazolo[3,4-b]pyrazin-5-yl)amino)ethyl)phenyl)-1H-pyrazole-4-carboxamide]	< 300	< 300
Cc1n[nH]c2ncc(N[C@@H](C)c3cccc(NC(=O)c4cnn(CCF)c4)c3)nc12 [Compound 544, (S)-1-(2-fluoroethyl)-N-(3-(1-((3-methyl-1H-pyrazolo[3,4-b]pyrazin-5-yl)amino)ethyl)phenyl)-1H-pyrazole-4-carboxamide]	< 300	< 300
CCn1cc(C(=O)Nc2cccc([C@H](C)Nc3cnc4[nH]nc(C)c4n3)c2)cn1 [Compound 545, (S)-1-ethyl-N-(3-(1-((3-methyl-1H-pyrazolo[3,4-b]pyrazin-5-yl)amino)ethyl)phenyl)-1H-pyrazole-4-carboxamide]	< 300	< 300
Cc1n[nH]c2ncc(N[C@@H](C)c3cccc(NC(=O)c4cnn(C(F)F)c4)c3)nc12 [Compound 546, (S)-1-(difluoromethyl)-N-(3-(1-((3-methyl-1H-pyrazolo[3,4-b]pyrazin-5-yl)amino)ethyl)phenyl)-1H-pyrazole-4-carboxamide]	< 300	< 300
Cc1n[nH]c2ncc(N[C@@H](C)c3cccc(NC(=O)c4cc(C(F)(F)F)n(C)n4)c3)nc12 [Compound 547, (S)-1-methyl-N-(3-(1-((3-methyl-1H-pyrazolo[3,4-b]pyrazin-5-yl)amino)ethyl)phenyl)-5-(trifluoromethyl)-1H-pyrazole-3-carboxamide]	< 300	< 300
Cc1n[nH]c2ncc(N[C@@H](C)c3cccc(NC(=O)c4cc(C(F)(F)F)nn4C)c3)nc12 [Compound 548, (S)-1-methyl-N-(3-(1-((3-methyl-1H-pyrazolo[3,4-b]pyrazin-5-yl)amino)ethyl)phenyl)-3-(trifluoromethyl)-1H-pyrazole-5-carboxamide]	< 300	< 300
Cc1cncc(C(=O)Nc2cccc([C@H](C)Nc3cnc4[nH]nc(Br)c4n3)c2)c1 [Compound 549, (S)-N-(3-(1-((3-bromo-1H-pyrazolo[3,4-b]pyrazin-5-yl)amino)ethyl)phenyl)-5-methylnicotinamide]	< 300	< 300
Cc1cncc(C(=O)Nc2cccc([C@H](C)Nc3cnc4[nH]nc(Cl)c4n3)c2)c1 [Compound 550, (S)-N-(3-(1-((3-chloro-1H-pyrazolo[3,4-b]pyrazin-5-yl)amino)ethyl)phenyl)-5-methylnicotinamide]	< 300	< 300
Cc1cncc(C(=O)Nc2cccc([C@H](C)Nc3cnc4[nH]nc(-c5cnn(C)c5)c4n3)c2)c1 [Compound 551, (S)-5-methyl-N-(3-(1-((3-(1-methyl-1H-pyrazol-4-yl)-1H-pyrazolo[3,4-b]pyrazin-5-yl)amino)ethyl)phenyl) nicotinamide]	< 300	< 300
